Assay results from patent US11286278B2, “DPEP-1 binding agents and methods of use” (Arch Biopartners, Inc., priority 2018, dated 2022).
Ends that are not written are not given here.

Target: T1, renal rat membrane dipeptidase (DPEP-1) (Rattus norvegicus, UniProt P31430)
T1 construct: expressed in transfected cells; host or cells: Cos-7
Assay: Binding of Alexa-488 conjugated peptides to Cos-7 cells transfected with renal rat membrane dipeptidase
Details: Alexa-488 conjugate, on ice 30 minutes
Description: Cells were incubated with LSALT or GFE-1 conjugated with Alexa-488 (Green), or control peptide conjugated with Alexa-488 (Green) on ice for 30 minutes. Cells were washed and fixed using 4% paraformaldehyde and immunofluorescence microscopy was performed to assess binding. Shown are representative photomicrographs of each experimental condition (n=2).
48 hours after transfection, cells were incubated with LSALT conjugated to Alexa-488 (green) on ice for 30 minutes. Cells were washed and flow cytometry was performed to assess binding. Shown are single parameter histographs for each experimental condition (n=2).

T1 sequence (P31430 17-384): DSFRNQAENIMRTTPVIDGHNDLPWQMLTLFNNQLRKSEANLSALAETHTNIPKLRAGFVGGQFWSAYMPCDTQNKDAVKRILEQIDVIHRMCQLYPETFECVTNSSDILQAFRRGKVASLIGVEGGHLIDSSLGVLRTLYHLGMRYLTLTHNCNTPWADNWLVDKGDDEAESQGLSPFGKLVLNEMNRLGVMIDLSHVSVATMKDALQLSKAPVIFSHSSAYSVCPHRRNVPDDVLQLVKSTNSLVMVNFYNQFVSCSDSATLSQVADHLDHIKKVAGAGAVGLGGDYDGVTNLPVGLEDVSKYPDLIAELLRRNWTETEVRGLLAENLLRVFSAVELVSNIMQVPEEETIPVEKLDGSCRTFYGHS

H-LSALTPSPSWLKYKAL [LSALT]
binding to Cos-7 cells on DPEP-1 expression, flow cytometry: Enhanced the Binding
binding to Cos-7 cells on DPEP-1 expression, immunofluorescence microscopy: Enhanced the Binding
